{"source": "patent US20250066389A1", "about": "“HETEROCYCLIC AMIDES AND METHODS OF USING THE SAME” (Rgenta Therapeutics, Inc., priority 2021, published 2025)", "note": "Where a name gives a salt, the structure may show the parent alone.", "data": [{"system": "PMS1", "experiment": "Mini-Gene Reporter Assay—PMS1 (firefly luciferase mini-gene reporter transiently transfected into HEK293 cells)", "format": "cell-based", "details": "Homo sapiens; at 5 uM; mini-gene firefly luciferase reporter in HEK293 cells; read-out: PMS1 % Effect at 5 uM", "excerpt": "(§1) Example 76. Mini-Gene Reporter Assay—PMS1\n(§2) Mini-gene reporter constructs for each target site can be constructed by first PCR amplifying the region-of-interest including the sequence of the alternatively skipped, sequences of the immediate upstream and downstream introns, and sequences of the immediate upstream and downstream exons. Then the 3′ end of the amplified sequence can be ligated to a firefly luciferase reporter gene and cloned into the pcDNA3.1 vector backbone. The final reporter construct can be transiently transfected into HEK293 cells using Lipofectamine 3000 transfection reagents. Compounds that can induce the inclusion of the skipped exon in the reporter construct would increase the reporter firefly luciferase activity.\n(§3) Test compounds may be diluted in duplicates and dispensed into an assay plate. Transient mini-gene reporter cell line stock is resuspended and dispensed into the assay plate. Assay plates are then centrifuged and incubated. A luciferase reagent (e.g. ONE-Glo firefly luciferase reagent from Promega®) may be added to the assay plate and the luminescence (RLU) signals recorded. EC50 values may be determined by curve fitting in Levenberg-Marquardt algorithm.\n(§4) In Table D below, A indicates a IC50 (μM)<1 μM, B indicates a IC50 (μM) 1 μM to <10 μM, and C indicates a IC50 (μM) 10 μM to <50 μM. In Table D below, A indicates a >75% Effect at 5 μM μM. B indicates a 50 to <75% Effect at 5 μM μM, and C indicates a <50% Effect at 5 μM.", "units": {"activation at 5 µM": "%"}, "values": [{"smiles": "CCOc1cc2nc(C)cn2cc1C(=O)Nc1ccc(N2CC[C@H](NC)C2)nn1", "note": "(single isomer, unassigned) [Compound 706]", "activation at 5 µM": "> 75"}, {"smiles": "CCOc1cc2nc(C)cn2cc1C(=O)Nc1ccc(N2CC[C@@H](NC)C2)nn1", "note": "(single isomer, unassigned) [Compound 707]", "activation at 5 µM": "> 75"}, {"smiles": "Cc1cn2cc(C(=O)Nc3ccc(N4CCNCC4)cc3F)ncc2n1", "note": "[Compound 101, N-(2-fluoro-4-(piperazin-1-yl)phenyl)-2-methylimidazo[1,2-a]pyrazine-6-carboxamide HCl Salt]", "activation at 5 µM": "< 50"}, {"smiles": "Cc1cn2cc(C(=O)Nc3ccc(N4CCNCC4)cc3)ncc2n1", "note": "[Compound 102, 2-methyl-N-(4-(piperazin-1-yl)phenyl)imidazo[1,2-a]pyrazine-6-carboxamide]", "activation at 5 µM": "< 50"}, {"smiles": "Cc1cn2cc(C(=O)Nc3ccc(N4CCNCC4)nc3)ncc2n1", "note": "[Compound 103, 2-methyl-N-(6-(piperazin-1-yl)pyridin-3-yl)imidazo[1,2-a]pyrazine-6-carboxamide]", "activation at 5 µM": "< 50"}, {"smiles": "Cc1cn2cc(C(=O)Nc3ccc(N4CCN[C@H](C)C4)nc3)ncc2n1", "note": "[Compound 104, hydrochloride]", "activation at 5 µM": "< 50"}, {"smiles": "Cc1cn2cc(C(=O)Nc3ccc(N4CCN[C@H](C)C4)cc3F)ncc2n1", "note": "[Compound 105, (R)—N-(2-fluoro-4-(3-methylpiperazin-1-yl)phenyl)-2-methylimidazo[1,2-a]pyrazine-6-carboxamide hydrochloride]", "activation at 5 µM": "< 50"}, {"smiles": "Cc1cn2cc(C(=O)Nc3ccc(N4C[C@H]5CC[C@@H](C4)N5)cc3F)ncc2n1", "note": "[Compound 106, N-(4-((1R,5S)-3,8-diazabicyclo[3.2.1]octan-3-yl)-2-fluorophenyl)-2-methylimidazo[1,2-a]pyrazine-6-carboxamide]", "activation at 5 µM": "< 50"}, {"smiles": "Cc1cn2cc(C(=O)Nc3ccc(N4CCN[C@@H](C)C4)cn3)cc(F)c2n1", "note": "[Compound 107, (S)-8-fluoro-2-methyl-N-(5-(3-methylpiperazin-1-yl)pyridin-2-yl)imidazo[1,2-a]pyridine-6-carboxamide TFA Salt]", "activation at 5 µM": "50 to 75"}, {"smiles": "Cc1cn2cc(C(=O)Nc3ccc(N4CCNCC4)cc3F)nc(C)c2n1", "note": "[Compound 109, N-(2-fluoro-4-(piperazin-1-yl)phenyl)-2,8-dimethylimidazo[1,2-a] pyrazine-6-carboxamide hydrochloride]", "activation at 5 µM": "> 75"}, {"smiles": "COc1c(C(=O)Nc2ccc(N3CCNCC3)cn2)cn2cc(C)nc2c1C", "note": "[Compound 112, 7-methoxy-2,8-dimethyl-N-(5-(piperazin-1-yl)pyridin-2-yl)imidazo[1,2-a]pyridine-6-carboxamide]", "activation at 5 µM": "< 50"}, {"smiles": "COc1cc2nn(C)cc2cc1C(=O)Nc1ccc(N2CC3(CNC3)C2)cc1F", "note": "[Compound 116, N-(2-fluoro-4-(2,6-diazaspiro[3.3]heptan-2-yl)phenyl)-6-methoxy-2-methyl-2H-indazole-5-carboxamide TFA Salt]", "activation at 5 µM": "< 50"}, {"smiles": "COc1cc2nn(C)cc2cc1C(=O)Nc1ccc(N2CC3CNCC3C2)cc1F", "note": "(stereo not shown) [Compound 117, N-(2-fluoro-4-(hexahydropyrrolo[3,4-c]pyrrol-2(1H)-yl)phenyl)-6-methoxy-2-methyl-2H-indazole-5-carboxamide]", "activation at 5 µM": "< 50"}, {"smiles": "Cc1cn2cc(C(=O)Nc3ccc(N4CCNCC4)nc3)cc(F)c2n1", "note": "[Compound 121, 8-fluoro-2-methyl-N-(6-(piperazin-1-yl)pyridin-3-yl)imidazo[1,2-a]pyridine-6-carboxamide]", "activation at 5 µM": "< 50"}]}, {"system": "PMS1", "experiment": "Mini-Gene Reporter Assay—PMS1 (firefly luciferase mini-gene reporter transiently transfected into HEK293 cells)", "format": "cell-based", "details": "Homo sapiens; mini-gene firefly luciferase reporter in HEK293 cells", "excerpt": "as §1, §2, §3, §4", "units": {"IC50": "nM"}, "values": [{"smiles": "COc1cc2nc(C)cn2cc1C(=O)Nc1ccc(N2CCN[C@@H]3CC[C@@H]32)cc1F", "note": "(racemic) [Compound 174, rac-N-(4-((1R,6S)-2,5-diazabicyclo[4.2.0]octan-2-yl)-2-fluorophenyl)-7-methoxy-2-methylimidazo[1,2-a]pyridine-6-carboxamide]", "IC50": "< 1000"}, {"smiles": "CCOc1cc2nc(C)cn2cc1C(=O)Nc1ccc(N2C[C@H]3CNCC[C@H]32)nn1", "note": "(racemic) [Compound 239]", "IC50": "1000 to 10000"}, {"smiles": "CCOc1cc2nc(C)cn2cc1C(=O)Nc1ccc(N2CC[C@@H]3NCCC[C@@H]3C2)nn1", "note": "(racemic) [Compound 241]", "IC50": "1000 to 10000"}, {"smiles": "CCOc1cc2nc(C)cn2cc1C(=O)Nc1ccc(N2CC[C@@H]3CNC[C@@H]3C2)nn1", "note": "(racemic) [Compound 246]", "IC50": "1000 to 10000"}, {"smiles": "CCOc1cc2nc(C)cn2cc1C(=O)Nc1ccc(N2CCC[C@H]3NCC[C@H]32)nn1", "note": "(racemic) [Compound 252]", "IC50": "1000 to 10000"}, {"smiles": "CCOc1cc2nc(C)cn2cc1C(=O)Nc1ccc(N2C[C@@H]3CNC[C@]3(C)C2)nn1", "note": "(racemic) [Compound 253]", "IC50": "1000 to 10000"}, {"smiles": "CCOc1cc2nc(C)cn2cc1C(=O)Nc1ccc(N2CC[C@@H]3NCC[C@@H]3C2)nn1", "note": "(racemic) [Compound 261]", "IC50": "1000 to 10000"}, {"smiles": "Cc1cn2cc(C(=O)Nc3ccc(N4CCNCC4)cc3F)cc(F)c2n1", "note": "[Compound 108, 8-fluoro-N-(2-fluoro-4-(piperazin-1-yl)phenyl)-2-methylimidazo[1,2-a]pyridine-6-carboxamide hydrochloride]", "IC50": "1000 to 10000"}, {"smiles": "COc1cc2nc(C)cn2cc1C(=O)Nc1ccc(N2CCNCC2)cn1", "note": "[Compound 110, 7-methoxy-2-methyl-N-(5-(piperazin-1-yl)pyridin-2-yl)imidazo[1,2-a]pyridine-6-carboxamide HCl Salt]", "IC50": "< 1000"}, {"smiles": "COc1cc2nc(C)cn2cc1C(=O)Nc1ccc(N2CCNCC2)cc1F", "note": "[Compound 111, N-(2-fluoro-4-(piperazin-1-yl)phenyl)-7-methoxy-2-methylimidazo [1,2-a]pyridine-6-carboxamide hydrogen chloride]", "IC50": "< 1000"}, {"smiles": "COc1cc2nn(C)cc2cc1C(=O)Nc1ccc(N2CCNCC2)cn1", "note": "[Compound 113, 6-methoxy-2-methyl-N-(5-(piperazin-1-yl)pyridin-2-yl)-2H-indazole-5-carboxamide HCl Salt]", "IC50": "1000 to 10000"}, {"smiles": "COc1cc2nn(C)cc2cc1C(=O)Nc1ccc(N2CCN[C@@H](C)C2)cc1F", "note": "[Compound 114, (S)—N-(2-fluoro-4-(3-methylpiperazin-1-yl)phenyl)-6-methoxy-2-methyl-2H-indazole-5-carboxamide HCl Salt]", "IC50": "< 1000"}, {"smiles": "COc1cc2nn(C)cc2cc1C(=O)Nc1ccc(N2CCNCC2)cc1F", "note": "[Compound 115, N-(2-fluoro-4-(piperazin-1-yl)phenyl)-6-methoxy-2-methyl-2H-indazole-5-carboxamide HCl Salt]", "IC50": "< 1000"}, {"smiles": "COc1cc2nc(C)cn2cc1C(=O)Nc1ccc(N2CCNCC2)nn1", "note": "[Compound 118, 7-methoxy-2-methyl-N-[6-(piperazin-1-yl)pyridazin-3-yl]imidazo[1,2-a]pyridine-6-carboxamide]", "IC50": "< 1000"}, {"smiles": "COc1cc2nc(C)cn2cc1C(=O)Nc1ccc(N2CCNCC2)nc1", "note": "[Compound 119, 7-methoxy-2-methyl-N-[6-(piperazin-1-yl)pyridin-3-yl]imidazo[1,2-a]pyridine-6-carboxamide]", "IC50": "1000 to 10000"}, {"smiles": "COc1cc2nc(C)cn2cc1C(=O)Nc1cnc(N2CCNCC2)nc1", "note": "[Compound 120, 7-methoxy-2-methyl-N-(2-(piperazin-1-yl)pyrimidin-5-yl)imidazo[1,2-a]pyridine-6-carboxamide]", "IC50": "1000 to 10000"}, {"smiles": "Cc1cn2cc(C(=O)Nc3ccc(N4CCN[C@@H](C)C4)nn3)c(OC3CCC3)cc2n1", "note": "[Compound 122, (S)-7-cyclobutoxy-2-methyl-N-(6-(3-methylpiperazin-1-yl)pyridazin-3-yl)imidazo[1,2-a]pyridine-6-carboxamide hydrochloride]", "IC50": "< 1000"}, {"smiles": "COc1cc2nn(C)cc2cc1C(=O)Nc1ccc(N2CCNCC2)nn1", "note": "[Compound 123, 6-methoxy-2-methyl-N-(6-(piperazin-1-yl)pyridazin-3-yl)-2H-indazole-5-carboxamide hydrochloride]", "IC50": "1000 to 10000"}, {"smiles": "Cc1cn2cc(C(=O)Nc3ccc(N4CCN[C@@H](C)C4)nn3)nc(C)c2n1", "note": "[Compound 124, (S)-2,8-dimethyl-N-(6-(3-methylpiperazin-1-yl)pyridazin-3-yl)imidazo[1,2-a]pyrazine-6-carboxamide hydrochloride]", "IC50": "1000 to 10000"}, {"smiles": "COc1cc2nn(C)cc2cc1C(=O)Nc1ccc(N2CCN[C@@H](C)C2)nn1", "note": "[Compound 125, (S)-6-methoxy-2-methyl-N-(6-(3-methylpiperazin-1-yl)pyridazin-3-yl)-2H-indazole-5-carboxamide hydrochloride]", "IC50": "< 1000"}, {"smiles": "CCOc1cc2nc(C)cn2cc1C(=O)Nc1ccc(N2CCNCC2)cc1F", "note": "[Compound 126, 7-ethoxy-N-(2-fluoro-4-(piperazin-1-yl)phenyl)-2-methylimidazo[1,2-a]pyridine-6-carboxamide]", "IC50": "< 1000"}, {"smiles": "COc1c(C(=O)Nc2ccc(N3CCNCC3)cc2F)cn2cc(C)nc2c1C", "note": "[Compound 127, N-(2-fluoro-4-(piperazin-1-yl)phenyl)-7-methoxy-2,8-dimethylimidazo[1,2-a]pyridine-6-carboxamide]", "IC50": "1000 to 10000"}, {"smiles": "Cc1cn2cc(C(=O)Nc3ccc(N4CCNCC4)cn3)c(OC3CCC3)cc2n1", "note": "[Compound 128, 7-cyclobutoxy-2-methyl-N-(5-(piperazin-1-yl)pyridin-2-yl) imidazo[1,2-a]pyridine-6-carboxamide hydrochloride]", "IC50": "< 1000"}]}]}
